Laboratory results as given in ChEMBL document CHEMBL4616632, “Discovery of Cyclic Boronic Acid QPX7728, an Ultrabroad-Spectrum Inhibitor of Serine and Metallo-β-lactamases” (J Med Chem, 2020).

What was measured:
Escherichia coli [1] = assay: Inhibition of Escherichia coli EC302 TEM-10 assessed as minimum concentration of compound needed to reduce the MIC of aztreonam to 4 ug/ml
[2] = molecular target: Beta-lactamase (Klebsiella pneumoniae) (UniProt Q93LQ9); assay: Inhibition of Klebsiella pneumoniae KP1004 KPC-2 assessed as minimum concentration of compound needed to reduce the MIC of aztreonam to 4 ug/ml
Pseudomonas aeruginosa [3] = assay: Inhibition of Pseudomonas aeruginosa PAM 1154 KPC-2 assessed as assessed as minimum potentiating concentration of compound needed to reduce the MIC of biapenem by 64 fold
Enterobacter cloacae = assay: Inhibition of Enterobacter cloacae ECL1002 AmpC assessed as minimum concentration of compound needed to reduce the MIC of aztreonam to 4 ug/ml
Escherichia coli [4] = assay: Inhibition of Escherichia coli EC308 SHV-5 assessed as minimum concentration of compound needed to reduce the MIC of aztreonam to 4 ug/ml
Pseudomonas aeruginosa [5] = assay: Inhibition of Pseudomonas aeruginosa PAM 1032 KPC-2 assessed as minimum potentiating concentration of compound needed to reduce the MIC of biapenem by 64 fold
[6] = Ratio of inhibition of Pseudomonas aeruginosa PAM 1032 KPC-2 assessed as minimum potentiating concentration of compound needed to reduce the MIC of biapenem by 64 fold to inhibition of Pseudomonas aeruginosa PAM 1154 KPC-2 assessed as assessed as minimum potentiating concentration of compound needed to reduce the MIC of biapenem by 64 fold
Klebsiella pneumoniae [7] = assay: Inhibition of Klebsiella pneumoniae KP1009 CTX-M-15 assessed as minimum concentration of compound required to reduce the MIC of aztreonam to 4 ug/ml
Pseudomonas aeruginosa [8] = assay: Inhibition of Pseudomonas aeruginosa PAM 2035 AmpC assessed as minimum concentration of compound needed to reduce the MIC of aztreonam to 4 ug/ml
Klebsiella pneumoniae [9] = assay: Inhibition of Klebsiella pneumoniae KP1081 NDM-1 assessed as minimum concentration of compound required to reduce the MIC of biapenem to 1 ug/ml
Acinetobacter baumannii = assay: Inhibition of Acinetobacter baumannii AB1053 OXA-72 assessed as minimum concentration of compound needed to reduce the MIC of meropenem to 8 ug/ml
Escherichia coli [10] = assay: Inhibition of Escherichia coli KP308 SHV-5 assessed as minimum concentration of compound required to reduce the MIC of aztreonam to 4 ug/ml
Escherichia coli [11] = assay: Inhibition of Escherichia coli ECM6625 SHV-5 assessed as minimum concentration of compound needed to reduce the MIC of aztreonam to 4 ug/ml
[12] = Protein binding in human plasma; assay type: ADME, cell-free; conditions: read-out: PPB (converted)
Escherichia coli [13] = assay: Inhibition of Escherichia coli ECM6619 TEM-10 assessed as minimum concentration of compound needed to reduce the MIC of aztreonam to 4 ug/ml
Klebsiella pneumoniae [14] = assay: Inhibition of Klebsiella pneumoniae KP1160 IMP-26 assessed as minimum concentration of compound needed to reduce the MIC of meropenem to 1 ug/ml
Klebsiella pneumoniae [15] = assay: Inhibition of Klebsiella pneumoniae KP1054 VIM-1 assessed as minimum concentration of compound required to reduce the MIC of biapenem to 1 ug/ml
[16] = molecular target: Beta-lactamase OXA-23 (Acinetobacter baumannii) (UniProt Q9L4P2); assay: Inhibition of Acinetobacter baumannii AB1054 OXA-23 assessed as minimum concentration of compound needed to reduce the MIC of meropenem to 8 ug/ml
Beta-lactamase OXA-23 = Beta-lactamase OXA-23 (Acinetobacter baumannii, UniProt Q9L4P2); assay: Inhibition of Acinetobacter baumannii OXA-23 using nitrocefin as substrate preincubated for 10 mins followed by substrate addition measured every 10 secs for 10 mins by spectrophotometrically analysis
[17] = Inhibition of recombinant Escherichia coli SHV-12 using nitrocefin as substrate preincubated for 10 mins followed by substrate addition measured every 10 secs for 10 mins by spectrophotometrically analysis
[18] = Inhibition of […] OXA-48 using nitrocefin as substrate preincubated for 10 mins followed by substrate addition measured every 10 secs for 10 mins by spectrophotometrically analysis
[19] = Inhibition of recombinant Escherichia coli IMP-1 using imipenem as substrate preincubated for 10 mins followed by substrate addition measured every 30 secs for 30 mins by spectrophotometrically analysis
[20] = Inhibition of recombinant Escherichia coli NDM-1 using imipenem as substrate preincubated for 10 mins followed by substrate addition and measured every 30 secs for 30 mins by spectrophotometric analysis
BlaVIM-1 = BlaVIM-1 (Escherichia coli, UniProt Q8GDC1); assay: Inhibition of recombinant Escherichia coli VIM-1 using nitrocefin as substrate preincubated for 10 mins followed by substrate addition measured every 10 secs for 10 mins by spectrophotometrically analysis
[21] = Inhibition of recombinant Escherichia coli CTX-M-14 using nitrocefin as substrate preincubated for 10 mins followed by substrate addition measured every 10 secs for 10 mins by spectrophotometrically analysis
[22] = Inhibition of recombinant Escherichia coli AmpC using nitrocefin as substrate preincubated for 10 mins followed by substrate addition measured every 10 secs for 10 mins by spectrophotometrically analysis
[23] = molecular target: Class A carbapenemase KPC-2 (Escherichia coli, UniProt A8DS27); assay: Inhibition of recombinant Escherichia coli KPC-2 using nitrocefin as substrate preincubated for 10 mins followed by substrate addition and measured every 10 secs for 10 mins by spectrophotometric analysis
[24] = Oral bioavailability in rat at 50 to 75 mg/kg by HPLC/MS analysis; assay type: ADME, organism-based; conditions: in vivo
Klebsiella pneumoniae [25] = assay: Inhibition of Klebsiella pneumoniae KP1086 OXA-48 assessed as minimum concentration of compound needed to reduce the MIC of biapenem to 1 ug/ml
Klebsiella pneumoniae [26] = assay: Inhibition of Klebsiella pneumoniae KP1081 NDM-1 assessed as minimum concentration of compound needed to reduce the MIC of biapenem to 1 ug/ml
[27] = molecular target: Beta-lactamase (Klebsiella pneumoniae) (UniProt Q93LQ9); assay: Inhibition of Klebsiella pneumoniae KP1004 KPC-2 assessed as minimum concentration of compound needed to reduce the MIC of biapenem to 1 ug/ml
[28] = Inhibition of recombinant Escherichia coli OXA-48 using nitrocefin as substrate preincubated for 10 mins followed by substrate addition and measured every 10 secs for 10 mins by spectrophotometric analysis

Chain of Beta-lactamase OXA-23 (Acinetobacter baumannii) (Q9L4P2 whole entry): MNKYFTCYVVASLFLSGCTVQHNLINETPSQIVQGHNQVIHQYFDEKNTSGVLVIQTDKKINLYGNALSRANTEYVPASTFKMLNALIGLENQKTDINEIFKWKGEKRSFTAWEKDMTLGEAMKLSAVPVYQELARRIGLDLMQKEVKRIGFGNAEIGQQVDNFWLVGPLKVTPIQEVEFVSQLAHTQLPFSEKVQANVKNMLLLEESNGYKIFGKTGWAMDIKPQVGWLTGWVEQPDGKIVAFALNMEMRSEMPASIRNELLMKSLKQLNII
Chain of Beta-lactamase (Klebsiella pneumoniae) (Q93LQ9 as listed by the source): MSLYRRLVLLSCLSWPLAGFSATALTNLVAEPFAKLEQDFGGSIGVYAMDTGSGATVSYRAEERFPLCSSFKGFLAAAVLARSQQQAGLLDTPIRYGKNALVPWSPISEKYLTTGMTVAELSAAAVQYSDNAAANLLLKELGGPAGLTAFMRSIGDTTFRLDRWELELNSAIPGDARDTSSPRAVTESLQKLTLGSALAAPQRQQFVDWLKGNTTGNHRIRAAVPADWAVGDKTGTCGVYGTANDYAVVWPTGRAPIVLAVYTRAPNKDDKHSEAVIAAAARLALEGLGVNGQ
Chain of Class A carbapenemase KPC-2 (A8DS27 whole entry): as the sequence (Q93LQ9 as listed by the source) above
Chain of Beta-lactamase OXA-23 (Q9L4P2 whole entry): as the sequence (Q9L4P2 whole entry) above

CSCC(=O)N[C@H]1Cc2cccc(C(=O)O)c2OB1O
MEC (Escherichia coli [1]): 5 µg/mL | MEC [2]: 0.6 µg/mL | Activity (Pseudomonas aeruginosa [3]): 5 µg/mL | MEC (Enterobacter cloacae): 0.6 µg/mL | MEC (Escherichia coli [4]): < 0.3 µg/mL | Activity (Pseudomonas aeruginosa [5]): 80 µg/mL | Ratio [6]: 8 | MEC (Klebsiella pneumoniae [7]): 0.6 µg/mL | MEC (Pseudomonas aeruginosa [8]): 2.5 µg/mL

COc1ccc2c(c1C(=O)O)OB(O)[C@@H]1C[C@H]21
MEC (Escherichia coli [1]): 0.08 µg/mL | MEC [2]: 0.16 µg/mL | MEC (Klebsiella pneumoniae [9]): 0.3 µg/mL | MEC (Acinetobacter baumannii): 0.6 µg/mL | MEC (Escherichia coli [10]): 0.08 µg/mL | MEC (Escherichia coli [11]): 0.08 µg/mL | MEC (Enterobacter cloacae): 0.3 µg/mL | fraction unbound [12]: 0.11 | MEC (Escherichia coli [13]): 0.08 µg/mL | MEC (Klebsiella pneumoniae [14]): 5 µg/mL | MEC (Klebsiella pneumoniae [15]): 0.04 µg/mL | MEC [16]: 1.25 µg/mL | MEC (Klebsiella pneumoniae [7]): 0.3 µg/mL | MEC (Pseudomonas aeruginosa [8]): 2.5 µg/mL

O=C(O)C[C@@H]1CC[C@H](NC(=O)Cc2cccs2)B(O)O1 [VABORBACTAM]
Ki (Beta-lactamase OXA-23): > 40 µM | Ki [17]: 0.021 µM | Ki [18]: 14 µM | Ki [19]: > 40 µM | Ki [20]: > 40 µM | Ki (BlaVIM-1): > 40 µM | Ki [21]: 0.033 µM | Ki [22]: 0.035 µM | Ki [23]: 0.056 µM

COc1ccc2c(c1C(=O)OCOC(=O)C(C)(C)C)OB(O)[C@@H](Sc1nncs1)C2
bioavailability [24]: 100%

Nc1nnc(SCC(=O)N[C@H]2Cc3cccc(C(=O)O)c3OB2O)s1
Activity (Klebsiella pneumoniae [25]): 2.5 µg/mL | Activity (Klebsiella pneumoniae [26]): > 20 µg/mL | Activity [27]: 0.08 µg/mL | Ki [28]: 0.0005 µM | Ki [20]: 7.4 µM | Ki [23]: 0.021 µM

COc1ccc2c(c1C(=O)O)OB(O)[C@@H](Sc1nncs1)C2
MEC (Escherichia coli [1]): 2.5 µg/mL | MEC [2]: 1.25 µg/mL | MEC (Klebsiella pneumoniae [9]): 0.3 µg/mL | MEC (Acinetobacter baumannii): > 20 µg/mL | MEC (Escherichia coli [10]): 0.3 µg/mL | MEC (Escherichia coli [11]): 0.3 µg/mL | MEC (Enterobacter cloacae): 10 µg/mL | MIC (Escherichia coli [13]): 2.5 µg/mL | MEC (Klebsiella pneumoniae [14]): 5 µg/mL | MEC (Klebsiella pneumoniae [15]): 0.3 µg/mL | bioavailability [24]: 3% | MEC [16]: > 20 µg/mL | MEC (Klebsiella pneumoniae [7]): 2.5 µg/mL | MEC (Pseudomonas aeruginosa [8]): 10 µg/mL

COc1ccc2c(c1C(=O)O)OB(O)[C@@H](NC(=O)CSC1CNC1)C2
Activity (Pseudomonas aeruginosa [3]): 5 µg/mL | Activity (Pseudomonas aeruginosa [5]): 5 µg/mL | Ratio [6]: 1

CSCC(=O)N[C@H]1Cc2ccc(O)c(C(=O)O)c2OB1O
MEC (Escherichia coli [1]): 2.5 µg/mL | MEC [2]: 1.25 µg/mL | Activity (Pseudomonas aeruginosa [3]): 2.5 µg/mL | MEC (Enterobacter cloacae): 2.5 µg/mL | MEC (Escherichia coli [4]): < 0.3 µg/mL | Activity (Pseudomonas aeruginosa [5]): 40 µg/mL | Ratio [6]: 16 | MEC (Klebsiella pneumoniae [7]): 1.25 µg/mL | MEC (Pseudomonas aeruginosa [8]): 5 µg/mL

CSCC(=O)N[C@H]1Cc2ccc(F)c(C(=O)O)c2OB1O
MEC (Escherichia coli [1]): 1.25 µg/mL | MEC [2]: 0.6 µg/mL | MEC (Klebsiella pneumoniae [9]): > 20 µg/mL | MEC (Acinetobacter baumannii): > 20 µg/mL | Activity (Pseudomonas aeruginosa [3]): 5 µg/mL | MEC (Escherichia coli [11]): 0.15 µg/mL | MEC (Enterobacter cloacae): 2.5 µg/mL | MEC (Escherichia coli [13]): 1.25 µg/mL | MEC (Klebsiella pneumoniae [14]): > 20 µg/mL | MEC (Klebsiella pneumoniae [15]): > 20 µg/mL | MEC (Escherichia coli [4]): < 0.3 µg/mL | Activity (Pseudomonas aeruginosa [5]): 20 µg/mL | Ratio [6]: 4 | MEC [16]: > 20 µg/mL | MEC (Klebsiella pneumoniae [7]): < 0.3 µg/mL | MEC (Pseudomonas aeruginosa [8]): 10 µg/mL

COc1ccc2c(c1C(=O)OCOC(C)=O)OB(O)[C@@H](Sc1nncs1)C2
bioavailability [24]: 52%

COc1ccc2c(c1C(=O)OCOC(=O)C(C)C)OB(O)[C@@H](Sc1nncs1)C2
bioavailability [24]: 100%

O=C(CSC1CNC1)N[C@H]1Cc2ccc(F)c(C(=O)O)c2OB1O
Activity (Pseudomonas aeruginosa [3]): 5 µg/mL | Activity (Pseudomonas aeruginosa [5]): 5 µg/mL | Ratio [6]: 1

COc1ccc2c(c1C(=O)OCOC(=O)OC(C)C)OB(O)[C@@H](Sc1nncs1)C2
bioavailability [24]: 94%

COc1ccc2c(c1C(=O)O)OB(O)[C@@H](NC(=O)Cc1cccs1)C2
Activity (Pseudomonas aeruginosa [3]): 5 µg/mL | Activity (Pseudomonas aeruginosa [5]): 40 µg/mL | Ratio [6]: 8

COc1ccc2c(c1C(=O)O)OB(O)[C@@H](NC(=O)CSC)C2
MEC (Escherichia coli [1]): < 0.3 µg/mL | MEC [2]: < 0.3 µg/mL | Activity (Pseudomonas aeruginosa [3]): 5 µg/mL | MEC (Enterobacter cloacae): 0.6 µg/mL | MEC (Escherichia coli [4]): < 0.3 µg/mL | Activity (Pseudomonas aeruginosa [5]): 10 µg/mL | Ratio [6]: 2 | MEC (Klebsiella pneumoniae [7]): < 0.3 µg/mL | MEC (Pseudomonas aeruginosa [8]): 20 µg/mL

O=C(CSC1CNC1)N[C@H]1Cc2cccc(C(=O)O)c2OB1O
Activity (Pseudomonas aeruginosa [3]): 2.5 µg/mL | Activity (Pseudomonas aeruginosa [5]): 2.5 µg/mL | Ratio [6]: 1

O=C(Cc1cccs1)N[C@H]1Cc2cccc(C(=O)O)c2OB1O
Activity (Pseudomonas aeruginosa [3]): 2.5 µg/mL | Activity (Pseudomonas aeruginosa [5]): 80 µg/mL | Ratio [6]: 32

NC(=O)[C@@H]1CC[C@@H]2CN1C(=O)N2OS(=O)(=O)O [AVIBACTAM]
Activity (Klebsiella pneumoniae [25]): 1.25 µg/mL | MEC [2]: < 0.04 µg/mL | MEC (Klebsiella pneumoniae [9]): > 20 µg/mL | Activity (Klebsiella pneumoniae [26]): > 20 µg/mL | Ki [17]: 0.00027 µM | Ki [18]: 0.027 µM | Ki [19]: > 40 µM | Activity [27]: < 0.04 µg/mL | Ki [28]: 0.027 µM | Ki [20]: 40 to 80 µM | Ki (BlaVIM-1): > 40 µM | Ki [21]: 0.00041 µM | Ki [22]: 0.01 µM | Ki [23]: 0.011 µM

O=C(Cc1cccs1)N[C@H]1Cc2ccc(F)c(C(=O)O)c2OB1O
Activity (Pseudomonas aeruginosa [3]): 10 µg/mL | Activity (Pseudomonas aeruginosa [5]): 40 µg/mL | Ratio [6]: 4

CCOC(=O)OCOC(=O)c1c(OC)ccc2c1OB(O)[C@@H](Sc1nncs1)C2
bioavailability [24]: 64%

O=C(O)c1cccc2c1OB(O)[C@@H](Sc1nncs1)C2
MEC (Escherichia coli [1]): 20 µg/mL | Activity (Klebsiella pneumoniae [25]): 5 µg/mL | MEC [2]: 10 µg/mL | MEC (Klebsiella pneumoniae [9]): 0.6 µg/mL | Activity (Klebsiella pneumoniae [26]): 0.6 µg/mL | MEC (Escherichia coli [10]): 2.5 µg/mL | MEC (Enterobacter cloacae): 20 µg/mL | Activity [27]: 0.16 µg/mL | MEC (Klebsiella pneumoniae [14]): 40 µg/mL | MEC (Klebsiella pneumoniae [15]): 2.5 µg/mL | Ki [28]: 0.0014 µM | Ki [20]: 0.024 µM | MEC (Klebsiella pneumoniae [7]): > 20 µg/mL | Ki [23]: 0.15 µM
